From patent US20240182445A1 (ONO PHARMACEUTICAL CO., LTD., priority 2019, published 2024) come the findings set out here.

Data set [1] in a line: Human hepatic microsomal intrinsic clearance. Format: in vitro ADME. Particulars: human hepatic microsomes. How it is done:
(§1) These assays were performed according to known methods as generally described in the following references: Conde-Ceide et al. ACS Med. Chem. Lett. 2015, 6, 716-720; Morris et al. J. Med. Chem. 2014, 57, 10192-10197; and Bubser et al. ACS Chem. Neurosci. 2014, 5, 920-942. Abbreviations which have been used in the descriptions of the following tables are; PPB is plasma protein binding; BHB is brain homogenate binding; and CLint is intrinsic clearance in hepatic microsomes.

Data set [2] deals with plasma protein. The experiment in a line: Mouse plasma protein binding (PPB). Type of data set: in vitro ADME. How it is done:
as §1

Data set [3] is described as follows: Mouse hepatic microsomal intrinsic clearance. Type of data set: in vitro ADME. Particulars: mouse hepatic microsomes. The method, then: as §1
A short description of data set [4]: Rat brain homogenate binding (BHB). Type of data set: in vitro ADME. How it is done: as §1
Data set [5] deals with plasma protein. Kind of data set: Rat plasma protein binding (PPB). Format: in vitro ADME. How it is done:
as §1

In data set [6] the test system is plasma protein. The experiment in a line: Human plasma protein binding (PPB). Type of data set: in vitro ADME. The method, then: as §1
A further data set concerns the target CYP2C9 (Homo sapiens, UniProt P11712). The experiment in a line: P450 inhibition 2C9. Type of data set: in vitro ADME. The method, then:
as §1

The next data set addresses T1, CYP1A2 (Homo sapiens, UniProt P05177).
T1 sequence (P05177 1-516): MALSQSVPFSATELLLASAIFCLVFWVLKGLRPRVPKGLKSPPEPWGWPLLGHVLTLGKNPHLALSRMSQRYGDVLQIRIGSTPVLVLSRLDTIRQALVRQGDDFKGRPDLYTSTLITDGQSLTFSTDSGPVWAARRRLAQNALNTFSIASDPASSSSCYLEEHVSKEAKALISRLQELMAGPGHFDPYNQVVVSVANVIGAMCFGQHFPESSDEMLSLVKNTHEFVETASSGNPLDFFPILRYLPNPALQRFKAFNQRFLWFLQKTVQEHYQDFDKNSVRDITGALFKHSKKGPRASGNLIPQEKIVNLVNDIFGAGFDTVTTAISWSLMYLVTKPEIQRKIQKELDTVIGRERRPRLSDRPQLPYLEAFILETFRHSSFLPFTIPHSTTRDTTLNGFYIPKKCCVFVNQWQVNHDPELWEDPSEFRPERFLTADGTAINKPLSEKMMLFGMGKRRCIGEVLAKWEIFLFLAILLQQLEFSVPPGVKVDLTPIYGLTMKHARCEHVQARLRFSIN
The experiment in a line: P450 inhibition 1A2. Format: in vitro ADME. How it is done:
as §1

Data set [7] deals with T2, human TREK-1 (Homo sapiens, UniProt O95069).
T2 construct: expressed in transfected cells
T2 sequence (O95069 1-426): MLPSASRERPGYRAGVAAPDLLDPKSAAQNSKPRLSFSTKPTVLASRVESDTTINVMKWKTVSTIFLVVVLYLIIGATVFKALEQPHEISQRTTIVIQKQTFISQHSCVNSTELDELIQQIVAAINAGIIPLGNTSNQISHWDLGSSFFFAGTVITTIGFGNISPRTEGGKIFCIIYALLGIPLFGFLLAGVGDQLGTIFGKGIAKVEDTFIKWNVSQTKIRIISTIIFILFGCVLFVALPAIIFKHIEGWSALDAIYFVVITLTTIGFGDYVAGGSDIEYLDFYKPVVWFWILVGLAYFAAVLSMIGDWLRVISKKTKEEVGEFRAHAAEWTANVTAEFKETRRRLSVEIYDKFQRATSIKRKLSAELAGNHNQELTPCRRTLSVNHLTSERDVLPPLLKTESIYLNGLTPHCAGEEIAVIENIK
The experiment in a line: TREK-1 Manual Patch Clamp (hMPC) assay. Format: cell-based. Particulars: CHO-K1 cells stably expressing human TREK-1; whole-cell current at 0 mV. How it is done:
The term “patch clamp technique” herein refers to the “gold standard” technique for evaluating TREK channel pharmacology. The detail method is described below.
CHO-K1 cells stably expressing human TREK-1 or HEK293 cells stably expressing human TREK-2 are plated on glass coverslips, and voltage clamped in the whole-cell configuration of the patch clamp technique. Cells were voltage clamped at a holding potential of −80 mV and the stepped to 0 mV for 500 msec. The voltage was subsequently ramped from −120 mV to +80 mV over a 500 msec duration. This step-ramp protocol was repeated every 10 sec. The bathing solution contained the following: 135 mM NaCl, 5 mM KCl, 2 mM CaCl2, 1 mM MgCl2, 5 mM D-Glucose, 10 mM HEPES, 10 mM sucrose (adjusted to pH 7.4 with NaOH, 300 mosmol/kg H2O). The pipette solution contained the following: 135 mM KCl, 2 mM MgCl2, 1 mM EGTA, 10 mM HEPES, 2 mM Na2ATP (adjusted to pH 7.35 with KOH, 285 mosmol/kg H2O). Test compounds were dissolved into the bathing solution. Experiments on TREK-2 were terminated with the addition of the control compound (tert-butyl (3-((4-(benzyloxy)-2-methylphenyl)carbamoyl)-4-chlorophenyl)carbamate) so that maximal inhibition could be determined. The effects of test compound on the currents were calculated at 0 mV using the following equations:
For CHO cells expressing TREK-1 channel: % inhibition=(1-post current/pre current)×100
The compounds shown in Table 2 were prepared in an analogous manner with the appropriate starting materials, and evaluated in our TREK-1 Manual Patch Clamp (hMPC) assay.

In data set [8] the target is T2, human TREK-1. The experiment in a line: TREK-1 Thallium (Tl+) flux assay, Method 1. Type of data set: cell-based. Particulars: TREK-1 Thallium (Tl+) flux assay; values without footnote *12 are Method 1. The procedure, abridged:
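Readout: Thallos fluorescence ratio, taken 25 s post-thallium relative to the pre-thallium baseline average, then converted to % inhibition. Cells were CHO-K1 stably expressing human TREK-1, dye-loaded and exposed to test compound (vehicle 0.3% DMSO) for 10 min prior to thallium stimulation.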

The next data set concerns the target CYP2D6 (Homo sapiens, UniProt P10635). The experiment in a line: P450 inhibition 2D6. Format: in vitro ADME. The method, then: as §1
A further data set addresses CYP3A4 (Homo sapiens, UniProt P08684). Kind of data set: P450 inhibition 3A4. Format: in vitro ADME. How it is done:
as §1

Chain of CYP3A4 (P08684 whole entry): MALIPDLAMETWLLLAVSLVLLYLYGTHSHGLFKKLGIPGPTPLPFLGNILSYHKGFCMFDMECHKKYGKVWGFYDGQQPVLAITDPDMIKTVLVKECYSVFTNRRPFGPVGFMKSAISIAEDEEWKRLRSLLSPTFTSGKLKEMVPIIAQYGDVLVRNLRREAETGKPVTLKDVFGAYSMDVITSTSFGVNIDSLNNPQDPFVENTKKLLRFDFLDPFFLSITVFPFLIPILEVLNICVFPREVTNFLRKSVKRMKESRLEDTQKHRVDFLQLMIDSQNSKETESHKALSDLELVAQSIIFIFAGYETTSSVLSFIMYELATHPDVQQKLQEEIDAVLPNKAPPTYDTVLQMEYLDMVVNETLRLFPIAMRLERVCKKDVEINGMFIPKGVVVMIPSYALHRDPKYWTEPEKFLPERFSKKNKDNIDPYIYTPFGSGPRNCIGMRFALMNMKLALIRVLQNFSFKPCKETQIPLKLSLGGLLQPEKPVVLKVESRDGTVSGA
Chain of CYP2C9 (P11712 whole entry): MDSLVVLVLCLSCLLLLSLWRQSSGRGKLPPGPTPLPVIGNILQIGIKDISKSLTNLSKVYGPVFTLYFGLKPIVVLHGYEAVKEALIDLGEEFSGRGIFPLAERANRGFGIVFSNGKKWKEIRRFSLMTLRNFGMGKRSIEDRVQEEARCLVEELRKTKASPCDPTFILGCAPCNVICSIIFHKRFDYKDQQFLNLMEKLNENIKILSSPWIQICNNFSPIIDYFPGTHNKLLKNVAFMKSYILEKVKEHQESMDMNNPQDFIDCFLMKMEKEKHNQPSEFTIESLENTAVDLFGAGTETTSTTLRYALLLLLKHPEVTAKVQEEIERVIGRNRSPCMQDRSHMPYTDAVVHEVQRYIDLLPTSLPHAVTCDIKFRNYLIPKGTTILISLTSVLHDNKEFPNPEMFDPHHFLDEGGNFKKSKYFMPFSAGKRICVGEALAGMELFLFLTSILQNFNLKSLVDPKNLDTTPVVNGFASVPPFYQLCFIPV
Chain of CYP2D6 (P10635 whole entry): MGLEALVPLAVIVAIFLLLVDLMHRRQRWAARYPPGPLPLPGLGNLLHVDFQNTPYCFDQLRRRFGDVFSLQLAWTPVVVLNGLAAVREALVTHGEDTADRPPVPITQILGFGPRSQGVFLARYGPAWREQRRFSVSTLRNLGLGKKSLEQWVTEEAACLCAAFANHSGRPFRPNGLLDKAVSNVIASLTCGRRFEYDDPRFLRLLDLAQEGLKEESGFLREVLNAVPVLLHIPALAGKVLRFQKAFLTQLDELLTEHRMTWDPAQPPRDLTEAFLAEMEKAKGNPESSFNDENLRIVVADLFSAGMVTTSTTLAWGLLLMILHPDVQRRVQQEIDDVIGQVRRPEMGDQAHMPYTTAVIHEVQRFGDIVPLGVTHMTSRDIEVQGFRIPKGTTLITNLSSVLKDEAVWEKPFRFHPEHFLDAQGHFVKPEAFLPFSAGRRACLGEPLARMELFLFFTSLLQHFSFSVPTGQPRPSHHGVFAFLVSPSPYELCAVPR

With `CC(=O)N[C@H]1CC[C@@H](n2ncc(Cl)c2C(=O)Nc2ncc(C#Cc3ccccc3)cc2C)CC1` [Compound 12, 1-(cis-4-acetamidocyclohexyl)-4-chloro-N-(3-methyl-5-(phenylethynyl)pyridin-2-yl)-1H-pyrazole-5-carboxamide], the figures for the CLint scaled in data set [1] and in data set [3] were 16 mL/min/kg and 103 mL/min/kg, respectively. Also, the “Mouse PPB (% bound)” value in the data set on plasma protein [2] is recorded as 99.2 % bound. In [4], the “Rat BHB (% bound)” value worked out at 99.7 % bound. Besides, the “Rat PPB (% bound)” value in the data set on plasma protein [5] was found to be 98.4 % bound. In addition, the “Human PPB (% bound)” value in the data set with plasma protein [6] is listed as 98.8 % bound. The IC50 was 5.7 µM against CYP2C9; 8.6 µM against CYP1A2; 0.06 µM against human TREK-1 [7]; 0.13 µM at human TREK-1 [8]; 4.5 µM against CYP2D6; over 30 µM at CYP3A4.
